Reference: patent publication US20180371046A1, “Therapy for Lower Urinary Tract Dysfunctions” (University of Pittsburgh - Of the Commonwealth System of …, priority 2017, published 2018)
“Also recorded” adds a separate entry of the source.

Legend:
[1] = test system: irradiated mouse bladder (chronic radiation cystitis); experiment: Decerebrated cystometry with simultaneous EUS electromyography in the selective bladder irradiation (chronic radiation cystitis) mouse model; assay type: in vivo; conditions: mice 9 weeks after 10 Gy selective bladder irradiation
Description: FIG. 4. Cystometric and EUS electromyographic assessment of irradiated mice with and without relaxin treatment. A. Selective bladder irradiation model. B-D. Bladder and sphincter functions were assessed using decerebrated cystometry with simultaneous electromyography (EMG; green traces) at 9 weeks following bladder irradiation.
(§1) A mouse model was developed to mimic chronic radiation cystitis. As a surrogate to chronic radiation cystitis in the mouse, a laparotomy was performed where the bladder was briefly withdrawn for selective high dose (10 Gy) irradiation (FIG. 4(A)). Delivered to the pelvic region such a dose could be lethal (LD50≅8 Gy). […] Moreover, following spinal cord injury, rodents can develop detrusor-sphincter-dyssynergia (DSD) which also occurs in humans. […] This is the first application of relaxin to treat bladder dysfunction due to irradiation damage or any urinary tract disease. The data also are by far the most impressive reversal/treatment for radiation cystitis.

[2] = test system: irradiated mouse bladder detrusor; experiment: Length-tension profiles and contractile responses of irradiated mouse bladders after relaxin treatment; assay type: in vivo; conditions: relaxin treated
Excerpt: (§2) FIG. 5A-5D. Relaxin treatment improves detrusor contractility and reduces bladder fibrosis in mouse bladders with chronic stage radiation cystitis. FIG. 5A. Length-tension profiles from irradiated (9-weeks post exposure) mouse bladders with and without relaxin treatment. […] FIG. 5B. […] FIG. 5C. […] Expression of the L-type Ca^2+ channel subunit, CaV1.2, was examined by immunohistochemistry. […] FIG. 5D.
as §1

irradiated mouse bladder = experiment: Histology and collagen quantification of irradiated mouse bladders; assay type: in vivo
Excerpt: as §2, §1

CaV1.2 [3] = experiment: Immunohistochemistry of L-type Ca2+ channel subunit in irradiated mouse bladders; assay type: in vivo; conditions: relaxin treated, listed as relaxin
Excerpt: as §2, §1

aged rat bladder [4] = experiment: Length-tension studies and agonist/EFS responses of bladder strips from aged and adult rats; assay type: in vivo
Description: Adult (9 months old) and aged (24 months old) Fisher 344/Brown Norway F1 (F-344) male rats were used in this study. Six out of twelve rats in each age group were treated with relaxin (400 μg/kg/day) or vehicle which were infused by osmotic mini-pumps (ALZET) for 14 days, after which bladders were excised and cut from outlet to dome along the midline ventral and dorsal aspects to form two strips.
One strip was placed in a recording chamber with oxygenated Krebs solution. The base was pinned to a fixed platform and the dome connected to a tension transducer mounted on a programmable stepper motor. Bladder strips were stretched longitudinally in 500 μm increments and baseline tension allowed to stabilize (passive tension). Three field stimulation (20 Hz, 3 sec train, 0.5 ms pulse width, 15V output) contractions were performed at each stretch to determine active force generation.
(§3) Aged (24 month) and adult (9 month) male and female F344 rats were administered recombinant human relaxin-2 (400 μg/kg/day) or saline for 14-days via subcutaneous osmotic pumps. At the end of the treatment period, bladders were isolated. Contractile function was assessed in bladder muscle strips using length-tension relationship and responses to agonists and electrical field stimulation. Bladder wall morphology was examined in histological sections stained for collagen and elastin.
(§4) Aged (24 month) and adult (9 month) male and female F344 rats (obtained through the aged rodent colony of the National Institute on Aging) were administered recombinant hRLX2 (400 μg/kg/day) or saline for 14-days via subcutaneous osmotic pumps. At the end of the treatment period, bladders were isolated and contractile function assessed in organ bath experiments using muscle strips to measure length-tension relationships and responses to agonists and electrical field stimulation. Bladder wall morphology was examined in 3 μm-thick histological sections stained for collagen and elastin. The expression of the L-type Ca^2+ channel α-subunit, Cav1.2, and relaxin receptor subtypes, RXFP1 and RXFP2, were determined by immunohistochemistry.

aged rat bladder [5] = experiment: Collagen staining and collagen:tissue ratio in aged and adult rat bladder sections; assay type: in vivo; conditions: for collagen:tissue ratio / bladder collagen content / deposition: 400 μg/kg/day for 14 days; for bladder collagen content / deposition: aged rats (male where stated)
Description: The other bladder strip was fixed in 10% PFA, embedded in paraffin, cut 5 μm thick, stained for collagen (Sigma HT251) and examined using bright field microscopy (total mag., 400×). The images were obtained at identical conditions and color analysis was performed using the ImageJ software threshold function to discriminate collagen and smooth muscle content.
as §3, §4

Cav1.2 [6] = experiment: Immunohistochemistry of Cav1.2 in aged rat bladders; assay type: in vivo; conditions: aged (24 month) rat bladders, 400 μg/kg/day for 14 days
Excerpt: FIG. 7. Expression of L-type Ca^2+ channels is increased in aged rat bladders following relaxin treatment. Immunohistological staining of aged (>24 month old) rat bladder sections for the L-type Ca^2+ channel al C subunit, Cav1.2α. Expression of Cav1.2α was increased in relaxin-treated rat bladders compared to sham controls, similar to that observed in irradiated mouse bladders (FIG. 5C). […] This emphasizes the heterogeneity of aging related bladder changes.
as §4

[7] = test system: C57Bl/6 mice with chronic radiation cystitis; experiment: Urine spot analysis of irradiated mice; assay type: in vivo, mouse
Description: FIG. 16. Urine spot analysis from irradiated mice with and without hRLX2 therapy. Mice were placed in metabolic cages with Whatman paper on the floor for 2 hours between 11 AM and 2 PM without access to food and water. Upon completion, filter papers were collected and photographed under UV light.
Thus, our assessment is that the therapeutic dose of hRLX2 is likely between 80 and 400 μg/kg/day.

[8] = Plasma hRLX2 level in rats; assay type: in vivo; conditions: rat, male; SC pump 77 μg/kg/d/14 days
[9] = test system: aged rat prostate / urethra; experiment: Histological sections of male rat urethras at the level of the prostate (aged rats, BPH); assay type: in vivo; conditions: hRLX2 treated vs control, preliminary studies
Excerpt: FIG. 21. Histological sections of male rat urethras—at the level of the prostate—from control and hRLX2 treated aged rats.
Benign Prostatic Hyperplasia is a non-malignant enlargement of the prostate and is a condition that frequently affects the elderly male population. BPH in humans can cause constriction of the urethra, outlet obstruction, inflammation, fibrosis and the development of LUTD (Bushman, W. A., et al.: The role of prostate inflammation and fibrosis in lower urinary tract symptoms. Am J Physiol Renal Physiol, 311: F817, 2016). […] However, the therapeutic effects of hRLX2 on BPH itself can still be evaluated in aged animal models. We propose that selective injection of hRLX2 (FIG. 20) to the lateral and ventral lobes (corresponding to the transitional zone of the human prostate) or systemic administration could be performed in aged rats or mice. Following treatment, the prostates could be evaluated histologically for morphological changes such as smooth muscle or extracellular matrix content, signs of inflammation (e.g., mast cell infiltration, edema) or epithelial damage, as that observed in preliminary studies (FIG. 21).

[10] = clinical trials in acute heart failure and scleroderma; as high as 250 μg/kg/day; cited from earlier work
RXFP1 and RXFP2 receptor = conditions: Bathgate et al. 2013; cited from earlier work
RXFP2 = RXFP2 (Homo sapiens, UniProt Q8WXD0); conditions: cited from earlier work
Chain of RXFP2 (Q8WXD0 whole entry, species assumed): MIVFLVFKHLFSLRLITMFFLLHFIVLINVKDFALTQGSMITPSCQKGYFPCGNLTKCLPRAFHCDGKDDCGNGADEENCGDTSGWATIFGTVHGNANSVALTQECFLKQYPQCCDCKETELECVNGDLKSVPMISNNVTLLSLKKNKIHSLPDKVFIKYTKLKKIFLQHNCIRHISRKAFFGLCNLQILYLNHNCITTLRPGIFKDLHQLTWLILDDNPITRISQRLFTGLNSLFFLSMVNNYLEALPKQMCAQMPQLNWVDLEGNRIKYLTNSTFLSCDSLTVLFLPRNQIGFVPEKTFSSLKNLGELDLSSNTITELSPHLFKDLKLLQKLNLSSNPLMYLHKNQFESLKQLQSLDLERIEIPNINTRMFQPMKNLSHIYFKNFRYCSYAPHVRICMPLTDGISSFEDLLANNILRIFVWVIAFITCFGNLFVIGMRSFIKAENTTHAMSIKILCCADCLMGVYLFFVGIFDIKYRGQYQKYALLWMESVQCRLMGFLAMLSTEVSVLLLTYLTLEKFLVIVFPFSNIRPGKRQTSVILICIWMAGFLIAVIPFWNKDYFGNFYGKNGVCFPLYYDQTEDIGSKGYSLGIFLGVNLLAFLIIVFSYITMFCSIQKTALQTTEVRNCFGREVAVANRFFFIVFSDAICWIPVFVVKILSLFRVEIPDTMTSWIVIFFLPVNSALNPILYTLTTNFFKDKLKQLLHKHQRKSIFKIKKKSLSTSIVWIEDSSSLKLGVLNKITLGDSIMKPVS

[11] = adult (9 month) male rats, relaxin vs vehicle, 400 μg/kg/day for 14 days

For human relaxin-2 [hRLX2], the “EUS electromyogram: guarding reflex and bursting” value ([1]; relaxin 400 μg/kg/day sc for 2 weeks from week 7) was “recovered with relaxin treatment; also recorded: return of a normal guarding reflex and bursting”, the “cystometry: voiding function and bladder compliance” value ([1]; relaxin 400 μg/kg/day sc mini-pump for 2 weeks from week 7) was “abolished overflow incontinence with a return of voiding function and improved bladder compliance” and the “active tension / active force generation (length-tension profile)” value ([2]; 9 weeks post exposure) was “reversed by relaxin treatment to a profile similar to non-irradiated control mouse bladders; also recorded: increased active force generation”. The “passive tension (length-tension profile)” value ([2]; 9 weeks post exposure) was “reversed by relaxin treatment to a profile similar to non-irradiated control mouse bladders; also recorded: reversed by relaxin”, the “responses to purinergic agonist (ABMA), depolarization (KCl) or electrical field stimulation (EFS)” value [2] was “no significant change” and the “contractile response of the detrusor to oxotremorine-M (cholinergic response)” value ([2]; listed as Relaxin) was “increased the contractile response of the detrusor to muscarinic receptor agonist, oxotremorine-M”. For the same molecule, the “contractile response of the detrusor to oxotremorine-M (cholinergic response)” value ([2]; listed as relaxin) was “an increase in the cholinergic response”, the “bladder wall histology (urothelium, lamina propria, detrusor layer)” value (irradiated mouse bladder; relaxin treated) was “intact urothelium, normal lamina propria and increased thickness of the detrusor layer” and the collagen content (irradiated mouse bladder; relaxin vs sham treated) was “significant decrease in collagen content; also recorded: decreased collagen content”. For the same molecule, the “CaV1.2 expression in the detrusor” value (CaV1.2 [3]) was “returned by relaxin treatment; also recorded: an increase in the expression of Cav1.2α”, the “compliance and force generation” value (aged rat bladder [4]; 24 month-old Fischer F-344 rats, 400 μg/kg/day sc ALZET pumps, 2 weeks (Example 2)) was “substantial increases in both compliance and force generation” and the active tension generation (aged rat bladder [4]; [11]) was “increased active tension generation compared to controls”. The passive tension profile (aged rat bladder [4]; [11]) was “no significant difference”, the passive tension profile (aged rat bladder [4]; aged (24 month) rats, male where stated, 400 μg/kg/day sc for 14 days) was “return of passive tension profiles comparable to adults” and the passive tension profile (aged rat bladder [4]; aged (24 month) rats, male where stated, 400 μg/kg/day sc for 14 days, listed as Relaxin) was “return of passive tension profiles comparable to adults”. For the same molecule, the passive tension profile (aged rat bladder [4]; aged (24 month) rats, male where stated, 400 μg/kg/day sc for 14 days, listed as relaxin) was “passive tension began increasing at a smaller degree of stretch compared to relaxin treated animals; also recorded: decreased the passive tension profile to that of adult animals”, the “responses to contractile agonists (ABMA and oxotremorine-M) or depolarization (KCl and EFS)” value (aged rat bladder [4]; aged and adult rat bladders, relaxin vs sham) was “no significant change” and the tissue compliance (aged rat bladder [4]; aged female rats, 400 μg/kg/day for 14 days) was “nor was it significantly altered”. For the same molecule, the active tension generation (aged rat bladder [4]; aged rats, relaxin vs vehicle/sham, 400 μg/kg/day for 14 days) was “equivocal; also recorded: no significant changes”, the “collagen:tissue ratio” value (aged rat bladder [5]; 9 month adult male rats, no significant difference to vehicle) was 0.33±0.09 and the “size of each bladder layer and collagen distribution” value (aged rat bladder [5]; 9 month old rats, sham vs relaxin treated) was “not significantly different”. For the same molecule, the “collagen:tissue ratio” value (aged rat bladder [5]; 24 month aged male rats, p<0.05) was 0.36±0.08, the “bladder collagen content / deposition” value (aged rat bladder [5]) was “decreased by hRLX2 treatment” and the “bladder collagen content / deposition” value (aged rat bladder [5]; listed as relaxin) was “decreased following relaxin treatment; also recorded: significant decrease in collagen content; also recorded: decreases in collagen content”. For the same molecule, the “detrusor layer thickness and collagen infiltration” value (aged rat bladder [5]; aged rats, relaxin treated vs shams) was “increased detrusor layer thickness and less collagen infiltration compared to shams”, the “Cav1.2 expression in the detrusor layer” value (Cav1.2 [6]) was “increased in aged rat bladders following hRLX2 treatment” and the “Cav1.2 expression in the detrusor layer” value (Cav1.2 [6]; listed as Relaxin) was “increased expression of L-type Ca^2+ channels”. The “Cav1.2 expression in the detrusor layer” value (Cav1.2 [6]; listed as relaxin) was “increased; also recorded: increases in smooth muscle expression of Cav1.2α”, the “urine spot analysis: number of spots and voided volumes” value ([7]; irradiated mice (10 Gy), 50 μg/kg/day sc osmotic pump, two weeks) was “small decrease in the number of spots and increase of voided volumes” and the “urine spot analysis: voiding pattern” value ([7]; irradiated mice (10 Gy), 400 μg/kg/day) was “voiding pattern identical to those of non-irradiated controls”. For the same molecule, the “urine spot analysis: voided volumes and number of spots” value ([7]; irradiated mice, dose not given) was “increased voided volumes and decreased the number of spots, restoring normal bladder function”, the “Plasma level, exogenous” value [8] was 5,042 ♂ pg/ml and the “prostatic urethra histology (inflammation, columnar epithelium disruption, collagen infiltration, internal urethral sphincter damage)” value [9] was “prevented these adverse changes”. The “safety for use in humans” value [10] was “validated its safety for use in humans” and the “affinity, RXFP1 versus RXFP2” value (RXFP1 and RXFP2 receptor) was “greater for the RXFP1 than the RXFP2 receptor”.

B1: insulin-like peptide-3 (protein, listed as Homo sapiens)
chain: MDPRLPAWALVLLGPALVFALGPAPTPEMREKLCGHHFVRALVRVCGGPRWSTEARRPATGGDQRESHSVSQAGLKLLSSSNPPTLTFQSVGISDVSCYSGWRDDICSMGWWPTVISRWDLACSPCPRPLTITATTVQLPPTLHATAASVAVPNKTC
In the case of B1, the “affinity for RXFP2” value (RXFP2) is listed as “highest affinity for RXFP2”.
